From patent US12252524B2, “GIP/GLP1 co-agonist compounds” (Eli Lilly and Company, priority 2018, dated 2025)
Numbered stars: 1 amine (or outer) side, 2 acyl side, 3 side chain; on linkers, the order of the positions; unused ones are H or OH. Square brackets hold non-standard residues; d marks the D form. Side chains are listed from the residue outwards. Peptide text beside a SMILES is read from it. * marks the point of attachment. C20 diacid = O=C(O)CCCCCCCCCCCCCCCCCCC(=O)*; C18 diacid = O=C(O)CCCCCCCCCCCCCCCCC(=O)*; γGlu = O=C(O)[C@H](CCC(=O)[*:2])N[*:1]; αMeF = C[C@](N)(Cc1ccccc1)C(=O)O; αMeL = CC(C)C[C@](C)(N)C(=O)O; AEEA = NCCOCCOCC(=O)O; Aib = CC(C)(N)C(=O)O

Key:
[1] = molecular target: human GLP-1 receptor (GLP-1R) (Homo sapiens, UniProt P43220); assay: cAMP pharmacological functional assay in presence of casein, hGLP-1R; type: cell-based; conditions: HEK293 cells expressing hGLP-1R, 0.1% Casein, geometric mean; read-out: hGLP1R cAMP Rel EC50 nM (SEM, n)
human GLP-1 receptor (GLP-1R), sequence (P43220 24-463): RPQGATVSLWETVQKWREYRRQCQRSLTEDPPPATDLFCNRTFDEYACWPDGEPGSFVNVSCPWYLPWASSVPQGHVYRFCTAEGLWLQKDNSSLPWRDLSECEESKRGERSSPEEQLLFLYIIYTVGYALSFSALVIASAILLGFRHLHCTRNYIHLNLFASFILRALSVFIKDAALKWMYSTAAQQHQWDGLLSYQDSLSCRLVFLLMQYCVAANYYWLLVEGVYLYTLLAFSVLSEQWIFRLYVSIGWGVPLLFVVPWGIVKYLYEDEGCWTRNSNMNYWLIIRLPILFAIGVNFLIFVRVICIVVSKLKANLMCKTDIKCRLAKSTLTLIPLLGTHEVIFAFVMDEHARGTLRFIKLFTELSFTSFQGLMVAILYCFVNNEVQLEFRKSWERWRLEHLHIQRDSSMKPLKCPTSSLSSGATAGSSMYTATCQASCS

[2] = molecular target: T1, gastric inhibitory peptide receptor (GIPR) (Homo sapiens, UniProt P48546); assay: cAMP pharmacological functional assay in presence of casein, hGIPR; type: cell-based; conditions: HEK293 cells expressing hGIPR, 0.1% Casein, geometric mean; read-out: hGIPR cAMP Rel EC50 nM (SEM, n)
T1 sequence (P48546 22-466): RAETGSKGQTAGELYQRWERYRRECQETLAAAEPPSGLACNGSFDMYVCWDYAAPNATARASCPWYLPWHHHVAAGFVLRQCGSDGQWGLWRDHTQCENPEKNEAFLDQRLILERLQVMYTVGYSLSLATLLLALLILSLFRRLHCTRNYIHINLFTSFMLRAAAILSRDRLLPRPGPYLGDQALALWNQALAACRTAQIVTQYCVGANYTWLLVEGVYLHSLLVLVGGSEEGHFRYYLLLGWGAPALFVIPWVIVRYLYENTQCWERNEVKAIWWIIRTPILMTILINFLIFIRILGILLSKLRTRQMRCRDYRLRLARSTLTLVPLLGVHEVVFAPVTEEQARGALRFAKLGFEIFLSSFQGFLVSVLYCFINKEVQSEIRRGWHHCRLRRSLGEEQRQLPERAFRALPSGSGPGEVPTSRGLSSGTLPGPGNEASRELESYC

human GLP-1R [3] = molecular target: T2, human GLP-1R (Homo sapiens, UniProt P43220); assay: GLP-1R HEK293 cell membrane [35S]GTPγS binding assay; type: biochemical; design: expressed in transfected cells; host or cells: HEK293 cells expressing human GLP-1R; membranes; conditions: HEK293 cell membranes expressing human GLP-1R, [35S]GTPγS binding; read-out: hGLP1R GTPgS Rel EC50 nM (SEM, n)
T2 sequence (P43220 24-463): as the sequence (P43220 24-463) above
Outline: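 Agonist-driven Gαs activation read as [35S]GTPγS ([…]) binding to receptor-expressing HEK293 membranes, 30 min at room temperature, pH 7.4. Detection by anti-Gαs immunocapture on scintillation beads; EC50 derived from four-parameter logistic concentration-response fit.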

human GLP-1R [4] = molecular target: T2, human GLP-1R; assay: GLP-1R CHO cell β-arrestin recruitment assay; type: cell-based; design: host or cells: CHO-K1 PathHunter cells, assay-ready frozen; conditions: for EC50: CHO-K1 cells, PathHunter β-arrestin-2 recruitment, 0.1% casein, read-out: hGLP1R B-Arrestin2 Rel EC50 uM (SEM, n); for hGLP1R B-Arrestin2 % Top: normalized to GLP-1 maximum control
Outline: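 Peptide-induced β-arrestin-2 recruitment measured by enzyme-fragment complementation luminescence after 90 min at 37 °C plus 60 min detection at RT.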

human Gcg receptor = molecular target: T3, human Gcg receptor (Homo sapiens, UniProt P47871); assay: [125I]-Glucagon binding (SPA), human Gcg receptor; conditions: read-out: hGLcgR Ki, nM (SEM, n)
T3 construct: expressed in transfected cells; crude membranes
T3 sequence (P47871 26-477): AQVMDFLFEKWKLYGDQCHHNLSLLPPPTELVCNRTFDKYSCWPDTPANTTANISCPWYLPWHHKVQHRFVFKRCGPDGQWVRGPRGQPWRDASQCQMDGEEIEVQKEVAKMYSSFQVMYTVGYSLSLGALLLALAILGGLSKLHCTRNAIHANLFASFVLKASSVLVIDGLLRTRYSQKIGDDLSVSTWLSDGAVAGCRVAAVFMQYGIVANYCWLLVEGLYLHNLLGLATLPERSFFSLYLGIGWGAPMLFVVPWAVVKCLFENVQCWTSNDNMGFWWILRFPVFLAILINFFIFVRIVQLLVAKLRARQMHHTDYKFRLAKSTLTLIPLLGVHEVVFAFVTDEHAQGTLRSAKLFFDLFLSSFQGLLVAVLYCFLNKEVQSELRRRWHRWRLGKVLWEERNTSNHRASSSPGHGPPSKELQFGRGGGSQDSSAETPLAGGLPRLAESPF
Outline: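 Cell pellets were lysed in hypotonic Tris buffer, pH 7.5, homogenized, and spun at low then high speed to give crude membranes. Ki was derived from the fitted IC50.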

| SMILES | EC50 [1] [nM] | EC50 [2] [nM] | EC50 (human GLP-1R [3]) [nM] | EC50 (human GLP-1R [4]) [µM] | hGLP1R B-Arrestin2 % Top (human GLP-1R [4]) [%] | Ki (human Gcg receptor) [nM] |
| --- | --- | --- | --- | --- | --- | --- |
| CC[C@H](C)[C@H](NC(=O)[C@H](CC(C)C)NC(=O)[C@H](Cc1ccc(O)cc1)NC(=O)[C@H](CCC(=O)O)NC(=O)[C@@H](NC(=O)[C@H](Cc1ccccc1)NC(=O)[C@H](CCC(=O)O)NC(=O)C(C)(C)NC(=O)[C@H](CCC(N)=O)NC(=O)[C@H](C)NC(=O)[C@H](CCCCNC(=O)COCCOCCNC(=O)COCCOCCNC(=O)CC[C@H](NC(=O)CCCCCCCCCCCCCCCCCCC(=O)O)C(=O)O)NC(=O)[C@H](CCCCN)NC(=O)[C@H](CC(=O)O)NC(=O)[C@H](CC(C)C)NC(=O)[C@](C)(CC(C)C)NC(=O)[C@@H](NC(=O)[C@H](CO)NC(=O)[C@H](Cc1ccc(O)cc1)NC(=O)[C@H](CC(=O)O)NC(=O)[C@H](CO)NC(=O)[C@@H](NC(=O)[C@H](Cc1ccccc1)NC(=O)[C@@H](NC(=O)CNC(=O)[C@H](CCC(=O)O)NC(=O)C(C)(C)NC(=O)[C@@H](N)Cc1ccc(O)cc1)[C@@H](C)O)[C@@H](C)O)[C@@H](C)CC)[C@@H](C)CC)C(=O)N[C@@H](C)C(=O)NCC(=O)NCC(=O)N1CCC[C@H]1C(=O)N[C@@H](CO)C(=O)N[C@@H](CO)C(=O)NCC(=O)N[C@@H](C)C(=O)N1CCC[C@H]1C(=O)N1CCC[C@H]1C(=O)N1CCC[C@H]1C(=O)N[C@@H](CO)C(N)=O [Example 289] (H-Y[Aib]EGTFTSDYSI[αMeL]LDKK([AEEA-AEEA-γGlu-C20 diacid])AQ[Aib]EFIEYLIAGGPSSGAPPPS-NH2) | 0.0544 | 0.0228 | 0.404 | 0.0124 | 51.3 | > 1050 |
| CC[C@H](C)[C@H](NC(=O)[C@H](CC(C)C)NC(=O)[C@H](Cc1ccc(O)cc1)NC(=O)[C@H](CCC(=O)O)NC(=O)[C@@H](NC(=O)[C@H](Cc1ccccc1)NC(=O)[C@H](C)NC(=O)C(C)(C)NC(=O)[C@H](CCC(N)=O)NC(=O)[C@H](C)NC(=O)[C@H](CCCCNC(=O)COCCOCCNC(=O)COCCOCCNC(=O)CC[C@H](NC(=O)CCCCCCCCCCCCCCCCC(=O)O)C(=O)O)NC(=O)[C@H](CCCCN)NC(=O)[C@H](CC(=O)O)NC(=O)[C@H](CC(C)C)NC(=O)[C@H](CC(C)C)NC(=O)[C@@H](NC(=O)[C@H](CO)NC(=O)[C@H](Cc1ccc(O)cc1)NC(=O)[C@H](CC(=O)O)NC(=O)[C@H](CO)NC(=O)[C@@H](NC(=O)[C@](C)(Cc1ccccc1)NC(=O)[C@@H](NC(=O)CNC(=O)[C@H](CCC(=O)O)NC(=O)C(C)(C)NC(=O)[C@@H](N)Cc1ccc(O)cc1)[C@@H](C)O)[C@@H](C)O)[C@@H](C)CC)[C@@H](C)CC)C(=O)N[C@@H](CCC(=O)O)C(=O)NCC(=O)NCC(=O)N1CCC[C@H]1C(=O)N[C@@H](CO)C(=O)N[C@@H](CO)C(=O)NCC(N)=O [Example 301] (H-Y[Aib]EGT[αMeF]TSDYSILLDKK([AEEA-AEEA-γGlu-C18 diacid])AQ[Aib]AFIEYLIEGGPSSG-NH2) | 0.0441 | 0.0346 | 0.435 | 0.00267 | 93.7 | 44.4 |
| CC[C@H](C)[C@H](NC(=O)[C@H](CC(C)C)NC(=O)[C@H](Cc1ccc(O)cc1)NC(=O)[C@H](CCC(=O)O)NC(=O)[C@@H](NC(=O)[C@H](Cc1ccccc1)NC(=O)[C@H](C)NC(=O)C(C)(C)NC(=O)[C@H](CCC(N)=O)NC(=O)[C@H](C)NC(=O)[C@H](CCCCNC(=O)COCCOCCNC(=O)COCCOCCNC(=O)CC[C@H](NC(=O)CCCCCCCCCCCCCCCCC(=O)O)C(=O)O)NC(=O)[C@H](CCC(=O)O)NC(=O)[C@H](CC(=O)O)NC(=O)[C@H](CC(C)C)NC(=O)[C@](C)(CC(C)C)NC(=O)[C@@H](NC(=O)[C@H](CO)NC(=O)[C@H](Cc1ccc(O)cc1)NC(=O)[C@H](CC(=O)O)NC(=O)[C@H](CO)NC(=O)[C@@H](NC(=O)[C@H](Cc1ccccc1)NC(=O)[C@@H](NC(=O)CNC(=O)[C@H](CCC(=O)O)NC(=O)C(C)(C)NC(=O)[C@@H](N)Cc1ccc(O)cc1)[C@@H](C)O)[C@@H](C)O)[C@@H](C)CC)[C@@H](C)CC)C(=O)N[C@@H](CCC(=O)O)C(=O)NCC(=O)NCC(=O)N1CCC[C@H]1C(=O)N[C@@H](CO)C(=O)N[C@@H](CO)C(=O)NCC(N)=O [Example 303] (H-Y[Aib]EGTFTSDYSI[αMeL]LDEK([AEEA-AEEA-γGlu-C18 diacid])AQ[Aib]AFIEYLIEGGPSSG-NH2) | 0.104 | 0.0254 | 0.547 | 0.0179 | 47.7 | 502 |
| CC[C@H](C)[C@H](NC(=O)[C@H](CC(C)C)NC(=O)[C@H](Cc1ccc(O)cc1)NC(=O)[C@H](CCC(=O)O)NC(=O)[C@@H](NC(=O)[C@H](Cc1ccccc1)NC(=O)[C@H](C)NC(=O)C(C)(C)NC(=O)[C@H](CCC(N)=O)NC(=O)[C@H](C)NC(=O)[C@H](CCCCNC(=O)COCCOCCNC(=O)COCCOCCNC(=O)CC[C@H](NC(=O)CCCCCCCCCCCCCCCCC(=O)O)C(=O)O)NC(=O)[C@H](CCCCN)NC(=O)[C@H](CC(=O)O)NC(=O)[C@H](CC(C)C)NC(=O)[C@H](CC(C)C)NC(=O)[C@@H](NC(=O)[C@H](CO)NC(=O)[C@H](Cc1ccc(O)cc1)NC(=O)[C@H](CC(=O)O)NC(=O)[C@H](CO)NC(=O)[C@@H](NC(=O)[C@H](Cc1ccccc1)NC(=O)[C@@H](NC(=O)CNC(=O)[C@H](CCC(=O)O)NC(=O)C(C)(C)NC(=O)[C@@H](N)Cc1ccc(O)cc1)[C@@H](C)O)[C@@H](C)O)[C@@H](C)CC)[C@@H](C)CC)C(=O)N[C@@H](C)C(=O)NCC(=O)NCC(=O)N1CCC[C@H]1C(=O)N[C@@H](CO)C(=O)N[C@@H](CO)C(=O)NCC(=O)N[C@@H](C)C(=O)N1CCC[C@H]1C(=O)N1CCC[C@H]1C(=O)N1CCC[C@H]1C(=O)N[C@@H](CO)C(N)=O [Example 316] (H-Y[Aib]EGTFTSDYSILLDKK([AEEA-AEEA-γGlu-C18 diacid])AQ[Aib]AFIEYLIAGGPSSGAPPPS-NH2) | 0.122 | 0.024 | 0.766 | 0.00608 | 26.1 | 654 |
